Laboratory results as given in US10184137B2, “Method of producing isoprene monomer” (AJINOMOTO CO., INC., priority 2014, dated 2019).
Values joined by “and” are separate entries in the source; they are usually repeats but may differ in a detail not shown here. Equal values may be shown once. Where a name gives a salt, the structure may show the parent alone.

Columns and labels:
[1] = molecular target: T1, Methanosaeta concilii mevalonate kinase (mcl), wild type, SEQ ID NO:6, N-terminal His-tag (Methanothrix soehngenii, UniProt F4BZB3); experiment: biochemical
T1 sequence (F4BZB3 1-317): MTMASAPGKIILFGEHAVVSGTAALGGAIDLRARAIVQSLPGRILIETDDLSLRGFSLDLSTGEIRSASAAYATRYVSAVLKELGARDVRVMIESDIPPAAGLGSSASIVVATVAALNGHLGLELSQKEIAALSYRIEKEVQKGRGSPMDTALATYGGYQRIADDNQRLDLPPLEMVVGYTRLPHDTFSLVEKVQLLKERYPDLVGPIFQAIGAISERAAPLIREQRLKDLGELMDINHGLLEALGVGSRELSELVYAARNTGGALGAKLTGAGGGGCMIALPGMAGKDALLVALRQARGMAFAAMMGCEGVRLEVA

[2] = molecular target: Corynebacterium variabile mevalonate kinase (cva), wild type, SEQ ID NO:3, N-terminal His-tag (Corynebacterium variabile, UniProt A0A0X2NLH5); experiment: Inhibition of cva-derived mevalonate kinase by DMAPP, GPP, FPP or DPM; format: biochemical
Sequence of Corynebacterium variabile mevalonate kinase (cva), wild type, SEQ ID NO:3, N-terminal His-tag (A0A0X2NLH5 entry or part of it): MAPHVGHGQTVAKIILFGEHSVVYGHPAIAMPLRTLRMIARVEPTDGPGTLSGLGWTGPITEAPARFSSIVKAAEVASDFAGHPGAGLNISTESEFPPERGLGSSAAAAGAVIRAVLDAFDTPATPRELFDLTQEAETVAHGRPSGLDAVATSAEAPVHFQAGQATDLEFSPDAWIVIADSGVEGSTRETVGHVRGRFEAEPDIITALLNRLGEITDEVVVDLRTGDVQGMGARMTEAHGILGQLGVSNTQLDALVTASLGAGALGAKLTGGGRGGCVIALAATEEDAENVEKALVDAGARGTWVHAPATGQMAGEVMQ
Description: (§1) Km value was calculated by Lineweaver-Burk plot.
(§2) Since GPP and FPP solutions contain methanol, methanol which was needed to keep the same methanol level at the addition to the reaction system was added to the reaction solution, which was designated as control.
(§3) Effect of 1 mM diphosphomevalonate (DPM) on each enzyme was also studied.

[3] = molecular target: T1, Methanosaeta concilii mevalonate kinase (mcl), wild type, SEQ ID NO:6, N-terminal His-tag; experiment: Inhibition of mcl-derived mevalonate kinase by DMAPP, GPP, FPP or DPM; format: biochemical
Description: as §1, §2, §3

[4] = molecular target: T2, Methanosarcina mazei mevalonate kinase (mma), wild type, SEQ ID NO:12, N-terminal His-tag (Methanosarcina mazei, UniProt Q8PW39); experiment: Inhibition of mma-derived mevalonate kinase by DMAPP, GPP, FPP or DPM; format: biochemical
T2 sequence (Q8PW39 1-301): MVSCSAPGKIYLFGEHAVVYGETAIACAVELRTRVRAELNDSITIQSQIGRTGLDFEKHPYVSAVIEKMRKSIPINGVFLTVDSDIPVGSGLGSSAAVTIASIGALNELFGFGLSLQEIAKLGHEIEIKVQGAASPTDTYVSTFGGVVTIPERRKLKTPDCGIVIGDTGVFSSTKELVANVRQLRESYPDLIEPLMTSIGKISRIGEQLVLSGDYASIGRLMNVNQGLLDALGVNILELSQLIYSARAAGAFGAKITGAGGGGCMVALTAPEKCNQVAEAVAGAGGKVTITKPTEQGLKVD
Description: as §1, §2, §3

[5] = molecular target: Methanocella paludicola mevalonate kinase (mpd), wild type, SEQ ID NO:1, N-terminal His-tag (Methanocella paludicola, UniProt D1YZ39); experiment: Inhibition of mpd-derived mevalonate kinase by DMAPP, GPP, FPP or DPM; format: biochemical
Sequence of Methanocella paludicola mevalonate kinase (mpd), wild type, SEQ ID NO:1, N-terminal His-tag (D1YZ39 entry or part of it): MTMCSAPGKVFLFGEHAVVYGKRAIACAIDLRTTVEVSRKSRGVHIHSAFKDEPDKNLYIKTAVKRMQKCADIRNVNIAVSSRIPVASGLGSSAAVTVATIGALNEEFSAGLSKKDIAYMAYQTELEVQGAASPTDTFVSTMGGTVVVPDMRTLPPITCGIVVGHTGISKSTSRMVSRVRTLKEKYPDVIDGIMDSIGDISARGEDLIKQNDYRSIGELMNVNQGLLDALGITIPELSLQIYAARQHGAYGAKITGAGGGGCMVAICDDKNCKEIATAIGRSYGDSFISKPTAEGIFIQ
Description: as §1, §2, §3

[6] = molecular target: Nitrosopumilus maritimus mevalonate kinase (nmr), wild type, SEQ ID NO:9, N-terminal His-tag (Nitrosopumilus maritimus, UniProt A9A427); experiment: Inhibition of nmr-derived mevalonate kinase by DMAPP, GPP, FPP or DPM; format: biochemical
Description: as §1, §2, §3

mevalonate kinase [7] = experiment: Expression analysis and activity confirmation of His-tagged mevalonate kinases from pET-21a(+) and pET-28b(+); format: biochemical; details: His-spinTrap eluate after dialysis, 10 μl enzyme solution
Description: Each obtained plasmid was used for transformation of E. coli BL21(DE3). […] When OD600 reached approximately 0.5, IPTG was added to the solution to final concentration of 1 mM. It was then cultured overnight at 20° C. Harvested cells were suspended in the buffer solution consisting of 50 mM sodium phosphate, 0.3 M NaCl and 20 mM Imidazol. Then the cells were disrupted with an ultrasonic disruptor (TOMY: UD-201, output level=3.5). After centrifugation (20,000×g, 20 min), disrupted cells were adsorbed to His-spinTrap (GE Healthcare). After washing with the same buffer solution, protein was eluted with the buffer solution consisting of 50 mM sodium phosphate, 0.3 M NaCl and 0.5 M imidazole (pH7.5). Eluate was dialyzed overnight at 4° C. with the external solution composed of 20 mM Tris-HCl (pH7.5) and 50 mM NaCl. Then, enzyme activity of each eluate in the internal dialysis solution was measured.
Activity of the internal dialysate (about 0.2 ml each) was measured with the 10 μl of enzyme solution (Table 8). Enzyme expression level was compared on activity basis between pET-21a(+) and pET-28b(+). […] It is inferred that expression level is higher in pET-28b(+). Therefore, purified enzyme expressed in pET-28b(+) was used in the further examinations.
Values were presented by decrease in absorbance per unit time per 10 μl in the enzyme reaction measurement system (dABS/min/10 μl).
(§4) Decrease in absorbance at 340 nm at 30° C. was measured to determine the enzyme activity. JASCO Corporation's spectrophotometer (V-650) was used in this study. Millimolar extinction coefficient of NADH used in this study was 6.22 mM^−1 cm^−1. […] Km value was calculated by Lineweaver-Burk plot.

mevalonate kinase [8] = experiment: Measurement of activity and Km value of purified mevalonate kinase (PK/LDH coupled, 340 nm); format: biochemical; details: 10 μl enzyme in 1 ml, replicate values
Description: Each obtained plasmid was used for transformation of E. coli BL21(DE3). […] When OD600 reached approximately 0.5, 0.1 mM IPTG (for cva, mma, nmr, and sce) or 1 mM (for mcl and mpd) of IPTG was added, and then the mixture was kept at 20° C. overnight to induce the target protein. Harvested cells were suspended in buffer solution A (50 mM sodium phosphate, 0.3 M NaCl and 20 mM Imidazol), and then the cells were disrupted with an ultrasonic disruptor (TOMY: UD-201). […] After centrifugation (28,000×g, 30 min), the supernatant was adsorbed onto His-Trap HP (GE Healthcare) to elute the target protein by linear concentration gradient of Imidazol (final concentration 0.5 M). Obtained protein was dialyzed by using an external solution composed of 20 mM Tris-HCl (pH 8.0) containing 1 mM DTT and 50 mM NaCl. Dialyzed protein was designated as purified enzyme. Protein quantity was measured with Bio-RAD protein assay kit and BSA standard condition.
as §4
Measured activity of each enzyme (JABS/min) was presented on Table 9 for the calculation of apparent Km value (Km app.) of each enzyme. Table 10 presents Km app., Vmax, molecular weight of the enzyme protein, protein concentration in the enzyme solution and calculated kcat.
Activity was indicated by dABS/min when 10 μl of each enzyme was added to 1 ml of reaction solution.

mevalonate kinase [9] = experiment: Inhibition of each mevalonate kinase by DMAPP, GPP, FPP or DPM; format: biochemical
Description: as §2
Respective effect of the added 5 mM DMAPP, 0.1 mM GPP, and 0.1 mM FPP on the activity of each enzyme was measured. […] Contrarily, mcl-derived enzyme was activated by 5 mM DMAPP and its activity increased by 20% from that of the control.
Activity when 10 μl of each enzyme was added to 1 ml of the reaction system was represented by dABS/min
as §3

mevalonate kinase [10] = experiment: Examination of product inhibition on each mevalonate kinase (absorbance at 386 nm, PMK addition); format: biochemical; details: in words
Description: When decrease in absorbance stopped, purified PMK was added to measure further decrease in absorbance at 386 nm.
FIG. 18 presents the SDS-PAGE profile of the purified PMK. […] Then, absorbance decreased further and finally absorbance at 386 nm decreased to 0.3 in all reaction systems. Therefore, it is inferred that mevalonate is converted into diphosphomevalonate via phosphomevalonate by adding PMK to each MVK.

C=C(C)CCOP(=O)(O)OP(=O)(O)O.N.N.N [IPP, Isopentenyl pyrophosphate tri-ammonium salt]
Enzyme activity with 33.6 μM IPP ([1]; mcl, 33.6 μM IPP, control (MeOH) 0.15939): 0.158 dABS/min
Enzyme activity with 168 μM IPP ([1]; mcl, 168 μM IPP, control (MeOH) 0.15939): 0.1606 dABS/min

CC(C)=CCOP(=O)(O)OP(=O)(O)O.N.N.N [DMAPP, Dimethylallyl diphosphate ammonium salt]
Enzyme activity with 5 mM DMAPP ([2]; 5 mM DMAPP, control 0.08338): 0.0786 dABS/min
Enzyme activity with 5 mM DMAPP ([3]; mcl, 5 mM DMAPP, control 0.1482): 0.1806 dABS/min
activation at 5000 µM ([3]; read-out: Increase of activity from that of the control): 20%
Enzyme activity with 5 mM DMAPP ([4]; 5 mM DMAPP, control 0.21): 0.1904 dABS/min
Enzyme activity with 5 mM DMAPP ([5]; 5 mM DMAPP, control 0.15734): 0.1528 dABS/min
Enzyme activity with 5 mM DMAPP ([6]; 5 mM DMAPP, control 0.2438): 0.231 dABS/min
Enzyme activity with 33.6 μM DMAPP ([1]; mcl, 33.6 μM DMAPP, control (H2O) 0.15403): 0.1527 dABS/min
Enzyme activity with 168 μM DMAPP ([1]; mcl, 168 μM DMAPP, control (H2O) 0.15403): 0.1552 dABS/min
activation at 5000 µM ([1]; read-out: Increase of relative activity): 20%

CC(C)=CCC/C(C)=C/CC/C(C)=C/COP(=O)(O)OP(=O)(O)O [FPP, farnesyl pyrophosphate ammonium salt]
Inhibition by FPP ([2]; 0.1 mM FPP): inhibited
Enzyme activity with 0.1 mM FPP ([2]; 0.1 mM FPP, control 0.08338): 0.04775 dABS/min
Inhibition by FPP ([3]; mcl, 0.1 mM FPP): no other enzymes were inhibited strongly
Enzyme activity with 0.1 mM FPP ([3]; mcl, 0.1 mM FPP, control 0.1482): 0.1562 dABS/min
Inhibition by FPP ([4]; 0.1 mM FPP): no other enzymes were inhibited strongly
Enzyme activity with 0.1 mM FPP ([4]; 0.1 mM FPP, control 0.21): 0.2059 dABS/min
Inhibition by FPP ([5]; 0.1 mM FPP): no other enzymes were inhibited strongly
Enzyme activity with 0.1 mM FPP ([5]; 0.1 mM FPP, control 0.15734): 0.1594 dABS/min
Inhibition by FPP ([6]; 0.1 mM FPP): no other enzymes were inhibited strongly
Enzyme activity with 0.1 mM FPP ([6]; 0.1 mM FPP, control 0.2438): 0.224 dABS/min

CC(C)=CCC/C(C)=C/COP(=O)(O)OP(=O)(O)O [GPP, geranyl phyrophosphate ammonium salt]
Enzyme activity with 0.1 mM GPP ([2]; 0.1 mM GPP, control 0.08338): 0.07532 dABS/min
Enzyme activity with 0.1 mM GPP ([3]; mcl, 0.1 mM GPP, control 0.1482): 0.1538 dABS/min
Enzyme activity with 0.1 mM GPP ([4]; 0.1 mM GPP, control 0.21): 0.2009 dABS/min
Enzyme activity with 0.1 mM GPP ([5]; 0.1 mM GPP, control 0.15734): 0.1589 dABS/min
Enzyme activity with 0.1 mM GPP ([6]; 0.1 mM GPP, control 0.2438): 0.2427 dABS/min

B1: nmr: mevalonate kinase derived from Nitrosopumilus maritimus (SEQ ID NO:9), His-tagged purified enzyme (protein, listed as Nitrosopumilus maritimus)
chain: MKSKASAPGKVILFGEHFVVYGVKAILCAINKRIAVTAEKIDERKISIKSNIGHLELEPNKPISEINSPLKPFYYLANKIIQDKNFGIKIDVESEIPLGVGLGSSSACCVAGAAAISNLFENNSKEEILKLAIEAEKTIFQNTSGADCTVCTFGGLMEYDKENGFSKIESEPNFHLVIANSNVEHSTESVVAGVRKFKKNNEAEFSKLCKDESHLIENVLELLKENNIRELGERVIKNQEYLERIGISNAKLREMIQTGQNSSFGAKITGAGGGGCIFALTDESNLENTIKEFKEKNHECFSVKIDFKGLDTF
modifications: His-tag
enzyme activity, pET21 system (C terminal Tag) (mevalonate kinase [7]): 0.137 dABS/min/10 μl
enzyme activity, pET28 system (N terminal Tag) (mevalonate kinase [7]): 0.247 dABS/min/10 μl
dABS/min at ATP 0.04 mM (mevalonate kinase [8]; ATP 0.04 mM, potassium mevalonate 5 mM): 0.007781 dABS/min and 0.00767 dABS/min and 0.007932 dABS/min
dABS/min at ATP 0.2 mM (mevalonate kinase [8]; ATP 0.2 mM, potassium mevalonate 5 mM): 0.03637 dABS/min and 0.03629 dABS/min and 0.03625 dABS/min
dABS/min at ATP 1 mM (mevalonate kinase [8]; ATP 1 mM, potassium mevalonate 5 mM): 0.1089 dABS/min and 0.1084 dABS/min and 0.1085 dABS/min
dABS/min at mev 0.04 mM (mevalonate kinase [8]; potassium mevalonate 0.04 mM, ATP 5 mM): 0.01691 dABS/min and 0.01687 dABS/min and 0.0168 dABS/min
dABS/min at mev 0.2 mM (mevalonate kinase [8]; potassium mevalonate 0.2 mM, ATP 5 mM): 0.06788 dABS/min and 0.06784 dABS/min and 0.06777 dABS/min
dABS/min at mev 1 mM (mevalonate kinase [8]; potassium mevalonate 1 mM, ATP 5 mM): 0.1521 dABS/min and 0.1522 dABS/min and 0.153 dABS/min
enzyme activity, Control (mevalonate kinase [9]; Table 11 control without terpenyl diphosphate (methanol added)): 0.2438 dABS/min
enzyme activity, Control (mevalonate kinase [9]; Table 12 control without DPM): 0.2064 dABS/min
course of decrease in absorbance at 386 nm until PMK addition (mevalonate kinase [10]; 1 mM mevalonate as substrate): decrease in the rate of reaction associated with the progression of reaction
DPM-induced inhibition (mevalonate kinase [10]): not observed
